# Laboratory results reported in patent publication US20230277863A1, “Use Of Photosensitizers For Treatment Of Viral Respiratory Infections” (priority 2020, published 2023).
# What was measured:
# [1] = tested on: SARS-CoV-2/Germany strain; assay: Inactivation of SARS-CoV-2 in infected Vero E6 cells, methylene blue plus broadband LED irradiation; conditions: for mean reduction factor (RF): broadband LED (Ledlenser P6), SARS-CoV-2-infected Vero E6 cells; for inactivation of the SARS-CoV-2: corresponds to the mean RF
# bovine coronavirus = assay: Inactivation of bovine coronavirus in infected cells using non-coherent LED light; format: cell-based; conditions: broadband LED light (non-coherent), 10000 Lux, 2 min of irradiation
# Experimental: In a further set of experiments, the U737 cells were treated under the conditions as shown in the table of FIG. 1 using irradiation with either a monochromatic LED device at 590 nm or a broadband LED device (non-coherent light in each case). Light intensity was 10000 Lux in both cases.
# BCoV strain L9 = assay: Inactivation of bovine coronavirus in infected U373 cells, photosensitizer plus 810 nm laser irradiation; conditions: for residual virus: 100 joule/cm^2, 0.3 watt/cm^2
# SARS-CoV-2 = assay: Treatment of a human subject suffering from COVID-19; format: in vivo; conditions: one patient, 3 days, every 6 hours
# [2] = 0.01% photosensitizer, without radiation, immediately wrapped in aluminium foil, stored and frozen in the dark
smiles,measurement,setting,value
CN(C)c1ccc2nc3ccc(=[N+](C)C)cc-3sc2c1 [methylene blue],mean reduction factor (RF),[1]; 0.0001% photosensitizer,≥ 4.67
same,inactivation of the SARS-CoV-2,[1]; 0.0001% photosensitizer,99.99%
same,residual virus,"[1]; 0.001% or 0.0001% photosensitizer, irradiation 1 minute, 20,000 lx, initial virus titre 6.92 log 10 TCID50/ml, Vero E6 cells",No residual virus was found
same,mean reduction factor (RF),[1]; 0.001% photosensitizer,≥ 4.67
same,inactivation of the SARS-CoV-2,[1]; 0.001% photosensitizer,99.99%
same,reduction of residual virus,bovine coronavirus,3 log10 steps
same,mean reduction factor,"BCoV strain L9; 0.0001% (w/v) photosensitizer, 810 nm, 100 joule/cm^2, 0.3 watt/cm^2, 5.46 min, BCoV-infected U373 cells",≥ 6.00 log10 steps
same,cytotoxicity (CT),"BCoV strain L9; 0.0001% photosensitizer samples, titration on U373 cells",no cytotoxicity
same,residual virus,"BCoV strain L9; 0.0001% photosensitizer, 810 nm",only minimal residual virus could still be detected in one sample
same,virus inactivation,"BCoV strain L9; 0.0001% photosensitizer, 810 nm, 100 joule/cm^2, corresponds to the mean RF",≥ 99.999%
same,reduction factor (RF),"BCoV strain L9; 0.001% (w/v) photosensitizer, 810 nm, 100 joule/cm^2, 0.3 watt/cm^2, 5.46 min, BCoV-infected U373 cells",5.08 log10 steps
same,reduction factor (RF),"BCoV strain L9; 0.01% (w/v) photosensitizer, 810 nm, 100 joule/cm^2, 0.3 watt/cm^2, 5.46 min, BCoV-infected U373 cells",4.08 log10 steps
same,reduction factor (RF),BCoV strain L9; [2],0.38±0.64
same,residual virus / effectiveness,BCoV strain L9; [2],substantial amounts of residual virus and no effectiveness
same,reduction factor (RF),"BCoV strain L9; 0.1% (w/v) photosensitizer, 810 nm, 100 joule/cm^2, 0.3 watt/cm^2, 5.46 min, BCoV-infected U373 cells",3.08 log10 steps
same,residual virus,"BCoV strain L9; 0.1% (w/v) to 0.001% (w/v) photosensitizer, 810 nm",no residual virus was found
same,PCR SARS-CoV-2 cycle threshold (CT) after treatment,"SARS-CoV-2; 3 μg methylene blue nasal/throat spray plus broadband LED ca. 6000 Lux, CT before treatment 19",35
same,condition of patient after treatment,"SARS-CoV-2; 3 μg methylene blue spray plus broadband LED, before: dry cough, headache, 38.2° C., medium general condition","no cough, no headache, normalized body temperature, normal general condition"
